Assay results reported in ChEMBL document CHEMBL1201862, “PubChem BioAssay data set” (2004).
Calls of active or inactive are those of the source. Rule as the data show it, for most assays here: actives have a measured EC50 and inactives only a lower limit.

Assays:
[1] = biological target: T1, Ubiquitin-conjugating enzyme E2 N (Homo sapiens, UniProt P61088); type: functional;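 also: Dose-response confirmation in a TR-FRET assay detecting UBC13-driven polyubiquitin chain formation, inhibition measured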
T1 sequence (P61088 whole entry): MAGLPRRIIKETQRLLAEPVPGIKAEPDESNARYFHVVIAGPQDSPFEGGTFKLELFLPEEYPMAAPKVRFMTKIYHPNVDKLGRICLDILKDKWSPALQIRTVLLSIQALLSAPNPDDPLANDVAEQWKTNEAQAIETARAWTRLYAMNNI

[2] = biological target: T2, Corticotropin-releasing factor receptor 2/Corticotropin-releasing factor-binding protein (Homo sapiens, UniProt P24387+Q13324); assay: activators of CRF receptor 2 with binding protein – uHTS hits, confirmation (AID 602473); type: functional; conditions: read-out: EC50_Mean
T2 sequence (Q13324 whole entry): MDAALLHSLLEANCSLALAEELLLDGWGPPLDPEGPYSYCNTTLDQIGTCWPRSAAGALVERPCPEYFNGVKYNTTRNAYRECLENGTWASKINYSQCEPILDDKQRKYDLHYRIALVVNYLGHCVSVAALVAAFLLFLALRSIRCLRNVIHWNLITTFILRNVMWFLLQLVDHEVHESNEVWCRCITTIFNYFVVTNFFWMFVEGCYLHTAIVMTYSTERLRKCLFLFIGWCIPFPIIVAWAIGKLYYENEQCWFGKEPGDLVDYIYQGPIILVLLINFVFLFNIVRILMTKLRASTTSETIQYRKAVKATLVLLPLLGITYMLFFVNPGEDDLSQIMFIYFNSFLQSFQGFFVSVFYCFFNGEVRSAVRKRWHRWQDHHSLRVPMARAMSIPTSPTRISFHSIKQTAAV
T2 sequence (P24387 whole entry): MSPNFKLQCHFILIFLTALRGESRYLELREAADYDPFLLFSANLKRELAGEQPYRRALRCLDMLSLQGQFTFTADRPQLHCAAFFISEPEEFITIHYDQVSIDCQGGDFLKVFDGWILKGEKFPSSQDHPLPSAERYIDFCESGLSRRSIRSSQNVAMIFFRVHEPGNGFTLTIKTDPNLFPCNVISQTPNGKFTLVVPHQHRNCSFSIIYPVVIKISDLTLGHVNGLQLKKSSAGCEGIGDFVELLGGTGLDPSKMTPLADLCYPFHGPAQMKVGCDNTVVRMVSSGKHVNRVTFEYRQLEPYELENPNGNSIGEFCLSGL

[3] = system: Streptococcus sp. 'group A'; assay: Streptococcus pyogenes SK(-)GAS viability under kanamycin – luminescence, BacTiterGlo, confirmation, counter-screen for streptokinase expression inhibitor project, dose response (AID 1900); type: functional, organism-based
[4] = biological target: T3, Streptokinase A (Streptococcus pyogenes serotype M1, UniProt P10520); assay: viability-normalized secreted streptokinase activity reduction – plasminogen activation absorbance, OD405, dose response (AID 1914); type: functional, Streptococcus pyogenes M1 GAS;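 also: secreted streptokinase activity via plasminogen activation per viability signal from cell pellet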
T3 sequence (P10520 whole entry): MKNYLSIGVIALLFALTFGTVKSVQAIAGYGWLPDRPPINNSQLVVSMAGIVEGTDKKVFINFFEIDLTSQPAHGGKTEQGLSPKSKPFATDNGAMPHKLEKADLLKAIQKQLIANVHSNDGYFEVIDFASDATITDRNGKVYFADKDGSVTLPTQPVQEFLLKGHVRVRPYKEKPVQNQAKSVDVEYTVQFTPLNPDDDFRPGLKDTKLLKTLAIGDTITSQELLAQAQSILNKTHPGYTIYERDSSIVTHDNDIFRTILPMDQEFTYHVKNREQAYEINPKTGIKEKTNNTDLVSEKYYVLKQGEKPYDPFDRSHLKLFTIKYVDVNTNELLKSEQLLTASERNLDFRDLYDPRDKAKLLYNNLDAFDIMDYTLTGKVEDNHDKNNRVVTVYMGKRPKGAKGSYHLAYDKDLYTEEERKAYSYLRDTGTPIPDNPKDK

[5] = system: Streptococcus; assay: GAS UMAA2166 growth inhibition – luminescence, BacTiterGlo, counter-screen for streptokinase expression inhibitor project, dose response (AID 1915); type: functional, organism-based;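 also: potency for reduction of bacterial viability or growth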
[6] = biological target: Cytochrome P450 3A4 (Homo sapiens, UniProt P08684); conditions: Potency;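 also: confirmatory qHTS run detecting inhibitors and substrates of CYP3A4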
[7] = biological target: T4, RNA-binding protein pos-1 (Caenorhabditis elegans, UniProt G5EF15); assay: disruptors of C. elegans POS-1 RNA interaction – biochemical, fluorescence polarization, dose response (AID 1964);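 also: purified POS-1 fused to maltose binding protein made in E. coli; potency of compounds blocking POS-1 binding to fluorescent RNA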
T4 sequence (G5EF15 whole entry): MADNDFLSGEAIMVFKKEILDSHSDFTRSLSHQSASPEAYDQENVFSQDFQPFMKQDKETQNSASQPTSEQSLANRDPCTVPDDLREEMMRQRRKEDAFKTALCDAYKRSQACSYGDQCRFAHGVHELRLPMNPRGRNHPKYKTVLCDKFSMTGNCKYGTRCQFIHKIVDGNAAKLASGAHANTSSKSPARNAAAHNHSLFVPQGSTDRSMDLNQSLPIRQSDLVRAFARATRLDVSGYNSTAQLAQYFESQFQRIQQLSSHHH

[8] = biological target: T5, Zinc finger protein mex-5 (Caenorhabditis elegans, UniProt Q9XUB2); assay: potency of MEX-5 RNA-binding blockers – biochemical, C. elegans, fluorescence polarization, dose response (AID 1960)
T5 sequence (Q9XUB2 whole entry): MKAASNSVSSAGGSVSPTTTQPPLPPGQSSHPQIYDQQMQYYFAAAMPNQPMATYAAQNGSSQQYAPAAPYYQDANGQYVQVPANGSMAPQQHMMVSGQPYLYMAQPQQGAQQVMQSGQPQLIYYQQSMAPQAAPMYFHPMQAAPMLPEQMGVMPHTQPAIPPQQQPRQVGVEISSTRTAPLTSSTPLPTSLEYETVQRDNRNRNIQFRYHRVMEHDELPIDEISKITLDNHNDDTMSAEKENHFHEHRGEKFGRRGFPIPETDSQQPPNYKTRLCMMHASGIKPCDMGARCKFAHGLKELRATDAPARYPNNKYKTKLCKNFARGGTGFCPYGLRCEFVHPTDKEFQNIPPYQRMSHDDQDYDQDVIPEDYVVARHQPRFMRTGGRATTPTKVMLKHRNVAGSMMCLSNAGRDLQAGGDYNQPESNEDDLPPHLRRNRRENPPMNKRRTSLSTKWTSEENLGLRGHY

[9] = biological target: FAD-linked sulfhydryl oxidase ALR (Homo sapiens, UniProt P55789); assay: ALR-catalysed DTT oxidation blockers – biochemical, H2O2 detection, luminescence, cherry-pick, dose response (AID 493248)
[10] = biological target: T6, Calpain-2 catalytic subunit (Sus scrofa, UniProt P43367); assay: m-calpain protease blockers, concentration series – biochemical, fluorogenic peptide substrate, dose response (AID 1420); type: functional
T6 sequence (P43367 whole entry): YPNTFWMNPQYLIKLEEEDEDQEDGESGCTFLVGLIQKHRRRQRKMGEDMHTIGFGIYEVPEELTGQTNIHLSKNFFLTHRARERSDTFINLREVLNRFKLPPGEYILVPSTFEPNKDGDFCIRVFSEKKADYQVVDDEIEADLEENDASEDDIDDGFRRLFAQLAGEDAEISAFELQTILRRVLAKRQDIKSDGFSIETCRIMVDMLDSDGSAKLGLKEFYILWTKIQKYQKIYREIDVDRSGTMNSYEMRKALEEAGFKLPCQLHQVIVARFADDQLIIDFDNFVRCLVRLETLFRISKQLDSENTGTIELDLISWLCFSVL

[11] = THP-1 cell cytotoxicity, dose response, cytotoxicity control for non-replicating M. tuberculosis project (AID 489025); type: functional
[12] = Trypanosoma cruzi growth suppression in host cells – NIH3T3 host cells, beta-gal luminescence, confirmation (AID 2044); type: functional, cell-based;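 also: intracellular parasites grown in NIH/3T3 mouse fibroblasts as host cells; luminescent beta-galactosidase reporter signal from transgenic T. cruzi replicating inside host cells; inhibitors lower the luminescence signal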
[13] = NIH3T3 cell viability loss – ATP luminescence, mouse fibroblasts, counter-screen, dose response (AID 2010); type: functional, cell-based;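 also: cells exposed to compound for about 90 hours before reading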

Sequence of Cytochrome P450 3A4 (P08684 whole entry, the tested form may be a part): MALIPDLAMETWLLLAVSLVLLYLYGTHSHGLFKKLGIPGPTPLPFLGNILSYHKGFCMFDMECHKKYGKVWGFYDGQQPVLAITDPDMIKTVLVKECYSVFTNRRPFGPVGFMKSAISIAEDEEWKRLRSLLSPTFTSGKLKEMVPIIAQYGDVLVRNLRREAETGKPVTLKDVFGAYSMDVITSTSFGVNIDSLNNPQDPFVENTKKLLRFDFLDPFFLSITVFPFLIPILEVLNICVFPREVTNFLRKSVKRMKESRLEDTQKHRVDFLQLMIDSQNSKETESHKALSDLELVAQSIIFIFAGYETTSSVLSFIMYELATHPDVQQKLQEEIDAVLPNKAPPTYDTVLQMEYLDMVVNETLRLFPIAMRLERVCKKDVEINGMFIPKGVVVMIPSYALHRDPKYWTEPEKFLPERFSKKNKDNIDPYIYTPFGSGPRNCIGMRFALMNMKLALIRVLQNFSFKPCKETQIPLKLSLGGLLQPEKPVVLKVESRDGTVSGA
Sequence of FAD-linked sulfhydryl oxidase ALR (P55789 whole entry): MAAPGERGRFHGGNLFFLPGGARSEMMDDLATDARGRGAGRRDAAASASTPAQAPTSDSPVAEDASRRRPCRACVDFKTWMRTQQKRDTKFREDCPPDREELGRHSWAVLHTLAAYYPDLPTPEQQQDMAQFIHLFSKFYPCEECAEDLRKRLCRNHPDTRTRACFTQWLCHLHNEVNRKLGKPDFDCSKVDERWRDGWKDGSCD

## CCCCC(=O)NC(=S)NNC(=O)c1ccc(OC)cc1
[1]
  IC50: > 20 µM (inactive)
[2]
  EC50: 5.06 µM (active)

## Cc1cccc(Cn2nc(-n3cccc3)c3c(C)cc(C)nc32)c1
[3]
  EC50: 12 µM (active)
[4]
  EC50: 15.1 µM (active)
[5]
  EC50: > 150 µM (not active)

## CC1(C)Cc2c(c(N3CCOCC3)nc3sc4c(=O)nc[nH]c4c23)CS1
[1]
  IC50: > 20 µM (inactive)

## CC(=O)OC1C2C(OC(=O)Cc3ccccc3)C(C)CC2(OC(C)=O)C(=O)/C(C)=C/C2C(CC[C@@]13CO3)C2(C)C (stereo partly drawn)
[6]
  AC50: 3.98 µM (inconclusive)

## CCN(CC)CCn1c(-c2ccccc2)nc2c(NC3CCCCC3)nc(C)nc21
[6]
  AC50: 15.8 µM (inconclusive)

## O=C(C1=C(O)C(=O)N(c2ncccn2)C1c1cccs1)c1ccco1 (stereo not drawn)
[7]
  EC50: 39.9 µM (active)
[8]
  EC50: 31.5 µM (active)

## N#CC1=C(N)OC2=C(C(=O)CCC2)C1c1ccc2c(c1)OCO2 (stereo not drawn)
[7]
  EC50: > 300 µM (not active)
[8]
  EC50: > 300 µM (not active)

## O=P(N[C@@H](c1ccccc1)[C@@H]1C[C@H]1CO)(c1ccccc1)c1ccccc1
[6]
  AC50: 15.8 µM (inconclusive)

## Cc1ccc(S(=O)(=O)NNC(=O)c2ccc3ccccc3n2)cc1
[9]
  AC50: 7 µM (active)

## CC1(OC(=O)c2ccc(Cl)nc2)C(=O)C=C2C=C(c3ccsc3)OC=C2C1=O (stereo not drawn)
[7]
  EC50: 54.4 µM (active)
[8]
  EC50: 41.9 µM (active)

## C=CC[n+]1c(C)csc1Nc1cccc(Br)c1
[9]
  AC50: 7.54 µM (active)

## CC(=O)Nc1ccc2c(c1)C(=O)N(c1cccc(C)c1)C2=O
[1]
  IC50: > 20 µM (inactive)

## O=C(CSc1nnc(CNC(=O)c2ccccc2)o1)NCCc1ccccc1
[3]
  EC50: > 150 µM (not active)
[4]
  EC50: > 150 µM (not active)
[5]
  EC50: > 150 µM (not active)

## N#C/C(=C(/O)c1cc2ccccc2o1)c1nc2ccccc2s1
[7]
  EC50: > 300 µM (not active)
[3]
  EC50: 9.28 µM (active)
[8]
  EC50: > 300 µM (not active)
[5]
  EC50: 42.4 µM (active)

## C[C@@H]1CC2(OC3C[C@@]4(C)C5=CC[C@H]6C(C)(C)C(O[C@@H]7OC[C@@H](O)[C@H](O)[C@H]7O)CC[C@@]67C[C@@]57CC[C@]4(C)C31)OC(O)C1(C)OC21 (stereo partly drawn)
[6]
  AC50: 5.01 µM (inconclusive)

## Cc1ccc(S(=O)(=O)Nc2c(C(=O)O)[nH]c3ccccc23)cc1C
[9]
  AC50: 10.8 µM (active)

## Cn1nc(N)c2c(-c3ccc(Cl)cc3)c(C#N)c(N)nc21
[1]
  IC50: > 20 µM (inactive)

## CCCCNc1nc(C)nc2c1nc(-c1ccccc1)n2CCCN(CC)CC
[6]
  AC50: 25.1 µM (inconclusive)

## CCC(=O)NC(=S)NNC(=O)c1ccc(OC)cc1
[1]
  IC50: > 20 µM (inactive)

## COC(=O)CNC(=O)C1(C)C=CC2(CCCCC2)N1C(C)=O (stereo not drawn)
[6]
  AC50: 25.1 µM (inconclusive)

## O=C(NCc1cccnc1)c1ccccc1CCc1ccccc1
[10]
  IC50: 18.8 µM (not active)

## COC(=O)C1=C(C)N(CC2CC2)C(NCc2cccc(Cl)c2)=N[C@H]1c1ccccc1
[11]
  CC50: 22.5 µM (active)

## COC(=O)c1cccc(NC(=O)Cc2coc3cc(OC)ccc23)c1
[1]
  IC50: > 20 µM (inactive)

## COc1ccc(CNc2oc(COc3ccc(Cl)cc3)nc2C#N)cc1
[12]
  EC50: 1.36 µM (active)
[10]
  IC50: 4 µM (not active)
[13]
  EC50: > 60 µM (not active)

## O=C(C1CCC(=O)N1C1CCCCC1)N1CCC2(CC1)OCCO2 (stereo not drawn)
[10]
  IC50: 8.43 µM (not active)

## Nc1nc(NC(=O)/C=C/c2ccc(F)cc2)nn1-c1ccccc1
[3]
  EC50: 3.91 µM (active)
[4]
  EC50: > 150 µM (not active)
[5]
  EC50: > 150 µM (not active)

## Nc1cc(Cl)c([N+](=O)[O-])cc1O
[6]
  AC50: 31.6 µM (inconclusive)

## O=c1cc(CO)oc(C(Nc2cccc([N+](=O)[O-])c2)c2ccccn2)c1O (stereo not drawn)
[1]
  IC50: > 20 µM (inactive)

## C=CCn1c(COc2ccccc2)nnc1SCC(=O)N/N=C/c1cc(Cl)ccc1O
[3]
  EC50: 4.37 µM (active)
[4]
  EC50: > 150 µM (not active)
[5]
  EC50: 48.1 µM (active)

## CCC(C)[C@@H](N)C(=O)N/N=C/c1cccc2nccnc12 (stereo partly drawn)
[7]
  EC50: > 300 µM (not active)
[8]
  EC50: > 300 µM (not active)

## Cc1ccc(Cn2c(N/N=C/c3ccncc3)nc3c2c(=O)n(C)c(=O)n3C)cc1
[9]
  AC50: 1.77 µM (active)

## CC(NC(=O)c1ccccc1)C(=O)N/N=C/c1ccc(O)cc1 (stereo not drawn)
[9]
  AC50: 2.14 µM (active)

## CCN1/C(=C/C(C)=O)Sc2ccc(OC)cc21
[6]
  AC50: 25.1 µM (inconclusive)

## COc1cc(-c2coc3cc(OCc4ccccc4)c(OC)c(O)c3c2=O)cc(O)c1OC [IRIGENIN, 7-BENZYL ETHER]
[6]
  AC50: 15.8 µM (inconclusive)

## COC1=CC(=O)C(O)=C/C1=C\C=C\c1ccccc1 [OBTUSAQUINONE]
[6]
  AC50: 25.1 µM (inconclusive)
